{
  "source": "patent US20220024980A1",
  "about": "“LIPO-GLYCOPEPTIDE CLEAVABLE DERIVATIVES AND USES THEREOF” (INSMED INCORPORATED, priority 2018, published 2022)",
  "test_system": "MRSA (USA300 ATCC BAA-1556)",
  "experiment": "Minimum inhibitory concentrations against MRSA by broth microdilution",
  "type": "cell-based, Staphylococcus aureus",
  "conditions": "Mueller Hinton II broth with 0.002% (v/v) Polysorbate-, compound = scaffold with R′ and R″ (table column)",
  "experimental": "Example 7—Minimum Inhibitory Concentrations Against MRSA Determined Using Broth Microdilution\nIn vitro activities were determined using CLSJ-guided broth susceptibility testing to measure drug minimum inhibitory concentrations (MICs) of compounds against MRSA (USA300 ATCC BAA-1556). The test medium used for the MIC assay was Mueller Hinton II broth made with 0.002% (v/v) Polysorbate-. Media was prepared fresh on the day of testing and stored according to guidelines from CLSJ.",
  "data": [
    {"smiles": "CCCCCCCCCCCC(=O)NCCNC1(C)CC(OC2C(Oc3c4cc5cc3Oc3ccc(cc3Cl)C(O)C3NC(=O)C(NC(=O)C5NC(=O)C(CC(N)=O)NC(=O)C(NC(=O)C(CC(C)C)NC)C(O)c5ccc(c(Cl)c5)O4)c4ccc(O)c(c4)-c4c(O)cc(O)cc4C(C(=O)O)NC3=O)OC(CO)C(O)C2O)OC(C)C1O", "note": "(centres unmarked) [RV62 (R″ = H)]", "values": [
      {"measurement": "MIC", "result": 0.016, "unit": "µg/mL"}
    ]},
    {"smiles": "CCCCCCCCCCCCNC(=O)CNC1(C)CC(OC2C(Oc3c4cc5cc3Oc3ccc(cc3Cl)C(O)C3NC(=O)C(NC(=O)C5NC(=O)C(CC(N)=O)NC(=O)C(NC(=O)C(CC(C)C)NC)C(O)c5ccc(c(Cl)c5)O4)c4ccc(O)c(c4)-c4c(O)cc(O)cc4C(C(=O)O)NC3=O)OC(CO)C(O)C2O)OC(C)C1O", "note": "(centres unmarked) [RV95 (R″ = H)]", "values": [
      {"measurement": "MIC", "result": 0.031, "unit": "µg/mL"}
    ]}
  ]
}
